This assay in a line: Antagonist activity at OXE receptor (unknown origin) expressed in neutrophils assessed as inhibition of 5-oxo-ETE-induced cell migration after 2 hrs by hematoxylin/chromotrope 2R staining-based microscopic analysis.

pIC50: −log10 of the molar value.

As to `CCCCCCc1c(C(=O)CC(C)CC(=O)O)c2cc(Cl)ccc2n1C` (stereo unspecified), the pIC50 is 6.34.

Source of the values: BindingDB's records for doi:10.1021/jm401292m (Mcgill University, 2014).
